How the values were obtained:
ERα = biological target: T1, ERα (Homo sapiens, UniProt P03372); experiment: ERα luciferase reporter (pERE2TATA-LUC) transactivation assay in transfected HEK293 cells; assay type: cell-based; set-up: expressed in transfected cells; host or cells: HEK293; settings: 24 hours; for ERα receptor activation relative to 10 nM E2 corresponding 100: Table 1, sample concentration 10 μM, mean of at least three independent transfections, SEM typically <15%; for ERα in vitro activity (receptor activation relative to 10 nM E2): Table 2, previously published compounds, test compound 10 μM
T1 sequence (P03372 1-595): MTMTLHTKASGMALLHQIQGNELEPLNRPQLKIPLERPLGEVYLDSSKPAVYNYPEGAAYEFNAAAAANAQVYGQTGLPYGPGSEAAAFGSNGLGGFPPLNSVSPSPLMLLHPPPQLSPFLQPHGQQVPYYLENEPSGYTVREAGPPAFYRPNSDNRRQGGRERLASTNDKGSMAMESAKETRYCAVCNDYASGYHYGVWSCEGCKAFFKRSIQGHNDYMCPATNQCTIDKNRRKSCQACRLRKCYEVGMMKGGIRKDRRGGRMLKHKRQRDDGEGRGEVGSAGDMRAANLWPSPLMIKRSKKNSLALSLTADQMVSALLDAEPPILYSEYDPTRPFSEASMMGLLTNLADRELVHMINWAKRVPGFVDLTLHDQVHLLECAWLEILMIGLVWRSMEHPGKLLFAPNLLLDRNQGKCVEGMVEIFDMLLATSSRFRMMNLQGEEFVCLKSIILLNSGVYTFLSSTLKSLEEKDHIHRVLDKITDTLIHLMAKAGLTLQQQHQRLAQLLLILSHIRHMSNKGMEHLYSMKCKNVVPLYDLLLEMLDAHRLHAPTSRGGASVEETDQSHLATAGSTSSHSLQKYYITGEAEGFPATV
Protocol: (§1) All other reagents were of reagent grade from Sigma or Fluka. One day before transfection, HEK293 cells were seeded in 48-well plates (70×10^3 cells per well) in phenol-free Dulbecco's modified Eagle medium supplemented with 5% delipidated fetal bovine serum (Sigma) and antibiotics. After a medium change, the cells were transfected for 4 hours with 5 ng ERα or ERβ expression vector, 75 ng reporter plasmid pERE2TATA-LUC and 20 ng control plasmid pCMVβ by the calcium phosphate method. After transfection, the cells received fresh medium containing either vehicle (0.1% v/v) or test compound (10 μM). After 24 hours, the cells were washed, lysed and luciferase and β-galactosidase activities were determined from 20 μl of lysates with the Victor^2TM reader (PerkinElmer Wallac, Turku, Finland). […] The data are means±SEM of at least three independent transfections.

ERβ = ERβ (Homo sapiens, UniProt Q92731); experiment: ERβ luciferase reporter (pERE2TATA-LUC) transactivation assay in transfected HEK293 cells; assay type: cell-based; set-up: expressed in transfected cells; host or cells: HEK293; settings: for ERβ receptor activation relative to 10 nM E2 corresponding 100: Table 1, sample concentration 10 μM, mean of at least three independent transfections, SEM typically <15%; for ERβ receptor activation relative to 10 nM E2 corresponding 100 / ERβ in vitro activity (receptor activation relative to 10 nM E2): 24 hours; for Emax at 10 µM: HEK293, 24 h, read-out: ERβ receptor activation relative to 10 nM E2 corresponding 100, Table 1, sample concentration 10 μM, mean of at least three independent transfections, SEM typically <15%; for ERβ in vitro activity (receptor activation relative to 10 nM E2): Table 2, previously published compounds, test compound 10 μM
Protocol: as §1

ERβ, sequence (Q92731 whole entry): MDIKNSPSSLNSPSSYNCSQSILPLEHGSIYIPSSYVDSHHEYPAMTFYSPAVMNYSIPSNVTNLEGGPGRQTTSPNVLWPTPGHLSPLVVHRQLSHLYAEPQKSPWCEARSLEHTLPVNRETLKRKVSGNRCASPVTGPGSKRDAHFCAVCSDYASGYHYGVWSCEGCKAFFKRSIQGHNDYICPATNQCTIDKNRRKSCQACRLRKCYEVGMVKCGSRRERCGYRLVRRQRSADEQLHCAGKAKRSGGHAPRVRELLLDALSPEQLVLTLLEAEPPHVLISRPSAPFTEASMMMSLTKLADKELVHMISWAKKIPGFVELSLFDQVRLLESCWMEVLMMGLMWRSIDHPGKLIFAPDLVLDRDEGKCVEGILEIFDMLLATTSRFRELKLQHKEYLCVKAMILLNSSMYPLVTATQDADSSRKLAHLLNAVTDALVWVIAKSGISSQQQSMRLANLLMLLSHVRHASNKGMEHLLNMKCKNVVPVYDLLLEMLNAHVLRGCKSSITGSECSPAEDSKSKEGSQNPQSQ

Structure (SMILES) | ERα receptor activation relative to 10 nM E2 corresponding 100 (ERα) [%] | ERβ receptor activation relative to 10 nM E2 corresponding 100 (ERβ) [%] | Emax at 10 µM (ERβ) [%] | ERα in vitro activity (receptor activation relative to 10 nM E2) (ERα) [%] | ERβ in vitro activity (receptor activation relative to 10 nM E2) (ERβ) [%]
COc1ccccc1CC(=O)CC(O)CCc1cccc(F)c1 (single isomer, unassigned) [Compound 22a, 6-(3-Fluorophenyl)-4-hydroxy-1-(2-methoxyphenyl)-2-hexanone] | 8.4 | 3.4 |  |  | 
COc1ccccc1CC(=O)CC(O)CCc1cccc(F)c1 (single isomer, unassigned) [Compound 22b, 6-(3-Fluorophenyl)-4-hydroxy-1-(2-methoxyphenyl)-2-hexanone] | 5.6 |  | 2.9 |  | 
O=C(CCCc1ccc(O)cc1)CC(O)c1cccc(O)c1 (single isomer, unassigned) [Compound 35a, 1-Hydroxy-1-(3-hydroxy-phenyl)-6-(4-hydroxy-phenyl)-hexan-3-one] | 87.4 | 107.8 |  |  | 
O=C(CCCc1ccc(O)cc1)CC(O)c1cccc(O)c1 (single isomer, unassigned) [Compound 35b, 1-Hydroxy-1-(3-hydroxy-phenyl)-6-(4-hydroxy-phenyl)-hexan-3-one] | 49.3 | 43.8 |  |  | 
O=C(CC(O)CCc1ccccc1)c1ccccc1 (single isomer, unassigned) [Compound 54a, 3-Hydroxy-1,5-diphenyl-pentan-1-one] |  |  |  | 3.0 | 1.1
O=C(CC(O)CCc1ccccc1)c1ccccc1 (single isomer, unassigned) [Compound 54b, 3-Hydroxy-1,5-diphenyl-pentan-1-one] |  |  |  | 30.2 | 7.3
O=C(CCc1ccccc1)CC(O)c1ccccc1 (single isomer, unassigned) [Compound 56a, 1-Hydroxy-1,5-diphenyl-pentan-3-one] |  |  |  | 78.8 | 20.5
O=C(CCc1ccccc1)CC(O)c1ccccc1 (single isomer, unassigned) [Compound 56b, 1-Hydroxy-1,5-diphenyl-pentan-3-one] |  |  |  | 25.3 | 2.8
COc1ccc(C(=O)CC(O)Cc2ccc(OCCN(C)C)cc2)cc1 (stereo not shown) [Compound 12ab, 4-[4-(2-Dimethylamino-ethoxy)phenyl]-3-hydroxy-1-(4-methoxy-phenyl)-butan-1-one] | 0 |  | -8.7 |  | 
O=C(Cc1ccccc1)CC(O)c1cccc(O)c1 (stereo not shown) [Compound 19ab, 4-Hydroxy-4-(3-hydroxyphenyl)-1-phenyl-butan-2-one] | 12.0 |  | 7.7 |  | 
O=C(Cc1ccccc1)CC(O)CCc1ccccc1 (stereo not shown) [Compound 20ab, 4-Hydroxy-1,6-diphenylhexan-2-one] | 4.3 |  | 0.2 |  | 
O=C(Cc1cccc(F)c1)CC(O)CCc1ccccc1 (stereo not shown) [Compound 21ab, 1-(3-Fluorophenyl)-4-hydroxy-6-phenyl-hexan-2-one] | 25.1 |  | 21.1 |  | 
CC(O)(CC(=O)CCc1ccc(O)cc1)c1ccccc1 (stereo not shown) [Compound 23ab, 5-Hydroxy-1-(4-hydroxy-phenyl)-5-phenyl-hexan-3-one] | 80.3 |  | 116 |  | 
O=C(CCc1ccccc1)CC(O)Cc1cccc2ccccc12 (stereo not shown) [Compound 27ab, 5-Hydroxy-6-naphthalen-1-yl-1-phenyl-hexan-3-one] | 12.1 |  | 1.7 |  | 
CC(O)(CC(=O)CCCc1ccc(O)cc1)c1ccccc1 (stereo not shown) [Compound 37ab, 6-Hydroxy-1-(4-hydroxy-phenyl)-6-phenyl-heptan-4-one] | 90.9 |  | 103 |  | 
O=C(CCCc1ccccc1)CC(O)CCc1ccccc1 (stereo not shown) [Compound 43ab, 6-Hydroxy-1,8-diphenyl-octan-4-one] | 2.2 |  | -7.1 |  | 
COC(CCc1ccccc1)CC(=O)Cc1ccccc1 (stereo not shown) [Compound 44ab, 4-Methoxy-1,6-diphenyl-hexan-2-one] | 12.0 |  | 0.2 |  | 

Now from value to molecule:

ERα receptor activation relative to 10 nM E2 corresponding 100 (ERα) [%] | ERβ receptor activation relative to 10 nM E2 corresponding 100 (ERβ) [%] | Emax at 10 µM (ERβ) [%] | ERα in vitro activity (receptor activation relative to 10 nM E2) (ERα) [%] | ERβ in vitro activity (receptor activation relative to 10 nM E2) (ERβ) [%] | Structure (SMILES)
1.6 | −0.8 |  |  |  | COc1ccc(CC(O)CC(=O)CCc2ccccc2)cc1 (single isomer, unassigned) [Compound 24a, 5-Hydroxy-6-(4-methoxyphenyl)-1-phenyl-hexan-3-one]
1.3 | 1.2 |  |  |  | COc1ccc(CC(O)CC(=O)CCc2ccccc2)cc1 (single isomer, unassigned) [Compound 24b, 5-Hydroxy-6-(4-methoxyphenyl)-1-phenyl-hexan-3-one]
12.4 | 6.4 |  |  |  | O=C(CCc1ccccc1)CC(O)Cc1ccc2ccccc2c1 (single isomer, unassigned) [Compound 28a, 5-Hydroxy-6-naphthalen-2-yl-1-phenyl-hexan-3-one]
20.1 | 20.1 |  |  |  | O=C(CCc1ccccc1)CC(O)Cc1ccc2ccccc2c1 (single isomer, unassigned) [Compound 28b, 5-Hydroxy-6-naphthalen-2-yl-1-phenyl-hexan-3-one]
15.4 | 1.8 |  |  |  | O=C(CCCc1ccc(O)cc1)CC(O)Cc1ccc(O)cc1 (single isomer, unassigned) [Compound 42a, 2-Hydroxy-1,7-di-(4-hydroxy-phenyl)-heptan-4-one]
2.8 | −1.6 |  |  |  | O=C(CCCc1ccc(O)cc1)CC(O)Cc1ccc(O)cc1 (single isomer, unassigned) [Compound 42b, 2-Hydroxy-1,7-di-(4-hydroxy-phenyl)-heptan-4-one]
22.6 |  | 58 |  |  | O=C(CC(O)Cc1ccccc1)c1ccc(O)cc1 (stereo not shown) [Compound 18ab, 3-Hydroxy-1-(4-hydroxyphenyl)-4-phenyl-butan-1-one]
51.4 |  | 6.1 |  |  | O=C(CCc1ccccc1)CC(O)Cc1ccc(O)cc1 (stereo not shown) [Compound 25ab, 5-Hydroxy-6-(4-hydroxy-phenyl)-1-phenyl-hexan-3-one]
35.0 |  | 3.9 |  |  | O=C(CCc1ccccc1)CC(O)Cc1ccc(F)cc1 (stereo not shown) [Compound 26ab, 6-(4-Fluorophenyl)-5-hydroxy-1-phenyl-hexan-3-one]
45.2 |  | 5.1 |  |  | O=C(CCc1ccccc1O)CC(O)Cc1ccccc1 (stereo not shown) [Compound 30ab, 5-Hydroxy-1-(2-hydroxy-phenyl)-6-phenyl-hexan-3-one]
21.6 |  | 11.1 |  |  | O=C(CCc1ccccc1O)CC(O)Cc1ccc(F)cc1 (stereo not shown) [Compound 32ab, 6-(4-Fluoro-phenyl)-5-hydroxy-1-(2-hydroxy-phenyl)-hexan-3-one]
28.6 |  | 21.2 |  |  | O=C(CCc1ccc(O)cc1)CC(O)Cc1ccc(F)cc1 (stereo not shown) [Compound 33ab, 6-(4-Fluoro-phenyl)-5-hydroxy-1-(4-hydroxy-phenyl)-hexan-3-one]
24.7 |  | 9.1 |  |  | O=C(CCCc1ccccc1)CC(O)Cc1ccccc1 (stereo not shown) [Compound 38ab, 2-Hydroxy-1,7-diphenyl-heptan-4-one]
16.0 |  | 2.4 |  |  | O=C(CCCc1ccccc1)CC(O)Cc1ccc(O)cc1 (stereo not shown) [Compound 39ab, 2-Hydroxy-1-(4-hydroxy-phenyl)-7-phenyl-heptan-4-one]
−0.5 |  | -0.8 |  |  | O=C(CCCc1ccc(O)c(O)c1)CC(O)Cc1ccccc1 (stereo not shown) [Compound 41ab, 2-Hydroxy-7-(3,4-dihydroxy-phenyl)-1-phenyl-heptan-4-one]

— US20100249243A1, “NOVEL BETA-HYDROXYKETONES AND BETA-ALKOXYKETONES WITH ESTROGENIC ACTIVITY” (priority 2007, published 2010)
